{"source": "patent US5861498A", "about": "“Nucleotides encoding immunophilin FKBP46 and fragments thereof” (Thomas Jefferson University, priority 1996, dated 1999)", "molecules": {"B1": {"name": "FKBP46: novel Sf9 insect cell nuclear immunophilin, SEQ ID NO:2; tested as recombinant His-tagged protein (protein)", "chain": "MFWGLIMEPNKRYTQVVEKPFHISQAAMDISTGDNDPCQVMVVVDGKNFLVCTLQKGKIIQVPLDLYFKSGDSVSFLTNGKCNVHLTGYLDPEFEEDLEDEEEAEEEEEEEEAPPLVPAKNKRKLENANDATANKKAKPDKKAGKNSAPAAESDSDDDDEDQLQKFLDGEDIDTDENDESFKMNTSAEGDDSDEEDDDEDEEDEEDDDEDDEEEEEAPKKKKKQPAAEQDSTLDTSKESVDMSKLSKSQKRRLKKKLQQQAKQQPQVNGVDKPKKEEPQQKAEKKKPEAKKEEAPVEKKEKKQIAGGVSIEDLKVGSGPVAKAGKVVMVYYEGRLKQNNKMFDNCVKGPGFKFRLGSKEVISGWDVGIAGMKVGGKRKIVCPPAMAYGAKGSPPVIPPNSTLVFEVDLKNVK", "modifications": "His tag", "notes": "tested as recombinant His-tagged protein"}}, "key": {"FKBP46 [1]": {"target": "T1, FKBP46 (Spodoptera frugiperda, UniProt Q26486)", "T1 construct": "Nuclear extract containing full-length FKBP46; made in house", "T1 sequence (Q26486 1-412)": "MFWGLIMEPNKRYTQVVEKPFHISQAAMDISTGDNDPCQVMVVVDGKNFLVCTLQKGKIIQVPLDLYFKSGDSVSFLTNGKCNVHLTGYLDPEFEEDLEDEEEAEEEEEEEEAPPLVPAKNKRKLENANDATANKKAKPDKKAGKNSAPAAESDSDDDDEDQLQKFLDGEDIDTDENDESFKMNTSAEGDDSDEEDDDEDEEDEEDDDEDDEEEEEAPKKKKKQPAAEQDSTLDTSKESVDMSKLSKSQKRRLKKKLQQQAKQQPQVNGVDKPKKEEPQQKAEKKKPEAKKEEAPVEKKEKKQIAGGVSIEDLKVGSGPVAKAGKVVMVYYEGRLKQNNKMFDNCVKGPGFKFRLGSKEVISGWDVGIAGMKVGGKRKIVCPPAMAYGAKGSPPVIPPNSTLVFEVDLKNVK", "assay": "[3H]Dihydro-FK506 binding assay, His-FKBP46 immobilized on Ni2+ affinity resin", "parameters": "species or system Sf9 insect cell", "description": "(§1) FIGS. 3A and 3B show FK506 binding and Peptidylprolyl cis-trans isomerase activities of FKBP46. In FIG. 3A, purified His-FKBP46 immobilized on Ni^2+ affinity resin was incubated with [^3 H]dihydro-FK506 in the presence […] or absence of cold FK506. The numbers under each column represent different amounts of nuclear extracts in microliters from Sf9 cells--expressing His-FKBP46 bound to separate Ni^2+ affinity resins. Nuclear extracts from wild type (WT) baculovirus infected Sf9 cells (10 μl) were bound to Ni^2+ affinity resin and used as a control. The amount of radioactivity associated with each resin sample is represented in disintegrations/min. In FIG. 3B, time-dependant release of p-nitroanilide by chymotrypsin from trans N-succinyl-Ala-Leu-Pro-Phe-p-nitroanilide measured by absorbance at 400 nm. Curve A reflects the rate of release of p-nitroanilide in a reaction catalyzed by FKBP46. Curve B is the same as curve A but in the presence of 5 μM FK506. Curve C is the same but without FKBP46. […]\n(§2) The radioactivity associated with FKBP46 was measured by scintillation counting. […] Chymotrypsin hydrolyzes the trans form to generate p-nitroanilide, which can be quantitated spectrophotometrically at 400 nm. […] From these curves, the specific activity of FKBP46 was calculated using the first order rate constant (S^-1), and the molar concentration of FKBP46 to be about 7.8×10^6 […]. […]"}, "FKBP46 [2]": {"target": "T1, FKBP46", "assay": "Peptidylprolyl cis-trans isomerase assay, inhibition by FK506", "assay_type": "biochemical, Sf9 insect cell", "conditions": "5 μM FK506, 100 nM His-FKBP46, 15° C.; FIG. 3B curve B", "description": "as §1, with “nm.” for “nm. Curve A reflects the rate of release of p-nitroanilide in a reaction catalyzed by FKBP46. Curve B is the same as curve A but in the presence of 5 μM FK506. Curve C is the same but without FKBP46.”\nPeptidylprolyl cis-trans Isomerase Assay--Peptidylprolyl isomerase activity of FKBP46 was assayed as described previously (Harrison, R. K., and Stein, R. L. (1990) Biochemistry 29, 3813-3816 and Park, S. T., et al. (1992) J. Biol. Chem. 267, 3316-3324) with some modifications. […] The reaction was started by the addition of chymotrypsin (100 μg/ml final) (Sigma), and the release of p-nitroanilide by chymotrypsin was measured by recording the increase in absorbance at 400 nm using a Perkin Elmer λ 3B spectrophotometer connected to a chart recorder. […]"}, "[3]": {"tested_on": "N-succinyl-Ala-Leu-Pro-Phe-p-nitroanilide", "conditions": "literature value for comparison (ref 19); cited from earlier work"}, "[4]": {"target": "N-succinyl-Ala-Leu-Pro-Phe-p-nitroanilide"}, "[5]": {"tested_on": "N-succinyl-Ala-Leu-Pro-Phe-p-nitroanilide", "assay": "Peptidylprolyl cis-trans isomerase assay, specific activity of the immunophilin", "assay_type": "biochemical", "conditions": "His-FKBP46 100 nM, substrate 75 μM, 15° C.", "description": "Peptidylprolyl cis-trans Isomerase Assay--Peptidylprolyl isomerase activity of FKBP46 was assayed as described previously (Harrison, R. K., and Stein, R. L. (1990) Biochemistry 29, 3813-3816 and Park, S. T., et al. (1992) J. Biol. Chem. 267, 3316-3324) with some modifications. His-FKBP46 (100 nM final) was incubated with the peptide substrate N-succinyl-Ala-Leu-Pro-Phe-p-nitroanilide (75 μM final) (Bachem, Switzerland) at 15° C. for 15 min. The reaction was started by the addition of chymotrypsin (100 μg/ml final) (Sigma), and the release of p-nitroanilide by chymotrypsin was measured by recording the increase in absorbance at 400 nm using a Perkin Elmer λ 3B spectrophotometer connected to a chart recorder.\nas §2, with “counting. […] Under these conditions, maximal binding was obtained when 10 μl of nuclear extracts containing recombinant His-FKBP46 were immobilized on Ni^2+ affinity resin (FIG. 3A, column 6).” for “counting.”"}}, "data": [{"molecule": "C=CC[C@@H]1/C=C(\\C)C[C@H](C)C[C@H](OC)[C@H]2O[C@@](O)(C(=O)C(=O)N3CCCC[C@H]3C(=O)O[C@H](/C(C)=C/[C@@H]3CC[C@@H](O)[C@H](OC)C3)[C@H](C)[C@@H](O)CC1=O)[C@H](C)C[C@@H]2OC", "note": "[FK506]", "values": [{"measurement": "[3H]dihydro-FK506 binding to FKBP46 in the presence of excess cold FK506", "setting": "FKBP46 [1]; 5000-fold excess of cold FK506, comparable with mock purified wild type extract, FIG. 3A columns 3, 5, 7", "value": "minimal"}, {"measurement": "inhibition at 5 µM", "setting": "FKBP46 [2]", "value": "~50", "unit": "%"}]}, {"molecule": "[3H]CC([3H])C[C@@H]1/C=C(\\C)C[C@H](C)C[C@H](OC)[C@H]2O[C@@](O)(C(=O)C(=O)N3CCCC[C@H]3C(=O)O[C@H](/C(C)=C/[C@@H]3CC[C@@H](O)[C@H](OC)C3)[C@H](C)[C@@H](O)CC1=O)[C@H](C)C[C@@H]2OC", "note": "(stereo partly drawn) [[^3 H]dihydro-FK506]", "values": [{"measurement": "[3H]dihydro-FK506 binding to FKBP46 (radioactivity associated with resin)", "setting": "FKBP46 [1]; 50 nM [3H]dihydro-FK506, on ice 18 h, absence of cold FK506, FIG. 3A", "value": "can bind specifically to FKBP46 in a dose-dependent manner"}]}, {"molecule": "hFKBP12: human FK binding protein FKBP12, comparison immunophilin", "values": [{"measurement": "specific activity", "setting": "[3]", "value": "about 4.3×10^6 s^-1. M^-1"}]}, {"molecule": "recombinant His-FKBP46", "values": [{"measurement": "peptidylprolyl cis-trans isomerase activity (chymotrypsin-coupled release of p-nitroanilide, absorbance at 400 nm)", "setting": "[4]", "value": "7.8e+06", "unit": "s⁻¹ M⁻¹"}]}, {"molecule": "B1", "values": [{"measurement": "specific activity (first order rate constant / molar concentration)", "setting": "[5]", "value": "about 7.8×10^6 s^-1. M^-1"}]}]}
